# Reference: patent US20090270373A1, “TREATMENT OF DOWN SYNDROM WITH BENZODIAZEPINE RECEPTOR ANTAGONISTS” (Cypress Biosciences, Inc., priority 2008, published 2009)
# How the values were obtained:
# WT mice = test: Novel object recognition assay (Discrimination Index) in WT mice; type: in vivo, mouse
# Experimental: (§1) Following baseline determinations and group assignments, WT and Ts65Dn mice received intraperitoneal (i.p.) injections once/day (08:00) for the two-week duration of the drug treatment regimen (FIG. 1). Drugs were dissolved in physiological saline. Two drops of Tween 80 were used to facilitate solution formation for flumazenil. Picrotoxin was initially made up at 50× concentration in 20% ethanol and then diluted down to a […] solution with 0.4% ETOH in saline. Doses of drugs were based on previous behavioral research in mice (1 mg/kg for PTX and 10 mg/kg for flumazenil). Injections were given in a volume of 10 ml/kg. A vehicle control was run along side the treatment groups (0.4% ETOH in saline).
# (§2) FIG. 1 graphically depicts the protocol. After habituation to the animal facility, mice were tested for baseline behaviors in the open-field locomotor assay (LMA)(30 min session) and the novel object recognition assay. Primary experimental groups were divided by genotype (Ts65Dn mice and wild-type control littermates). These two groups were further divided into drug treatments (vehicle, PTX and flumazenil) with a targeted n-size of 8 mice/group (24 WT and 24 Ts65Dn mice total). The group assignments were made in a semi-random process due to constraints in animal availability (staggered shipping) and choice of initial treatment groups (e-mail documentation between Bilsky laboratory and Cypress Bioscience on file). Daily morning injections began on Day 1 and went through the morning of Day 14. On Days 7/8 and 14/15 (13:00) mice were tested in the behavioral assay. Mice were kept for an additional two weeks and re-tested on Days 21/22 and 28/29 to assess the duration of the drug treatment effect.
# (§3) The novel object recognition task is based on the innate tendency of rodents to differentially explore novel objects over familiar ones. The task is well validated for evaluating rodent memory and the effects of drug treatments on learning/memory performance.
# (§4) Mice were trained and tested once per week, each experimental session separated by a one-week interval. Mice were submitted to daily handling sessions, and given an opportunity to habituate to an open field arena (48 cm×48 cm wide×25 cm), where they were exposed to two different objects (complex protocol), during a 5-minute training session. Objects were made from various non-porous materials that differ in shape and color. Mice were unable to climb onto the objects and the objects were generally consistent in height and volume, and were roughly symmetrical on a horizontal plane. Objects were positioned in two corners of the apparatus. To control for odor cues, the open field arena and the objects are thoroughly cleaned with 90% ethanol, dried, and ventilated for a few minutes between mice.
# (§5) A 5-minute testing session was conducted 24 h after training. Here, the mice were presented with the object they had explored the previous day, and a new item (the objects being alternatively positioned in one corner or another in a balanced fashion within a given week, and from one week to another). […]
# Ts65Dn mice = test: Novel object recognition assay (Discrimination Index) in Ts65Dn mice, model of Down syndrome; type: in vivo, mouse
# Experimental: as §1, §2, §3, §4, §5
# [1] = of the intravenous bioavailability; cited from earlier work
structure (smiles),measurement,setting,value
"CCOC(=O)c1ncn2c1CN(C)C(=O)c1cc(F)ccc1-2 [flumazenil, 8-fluoro-5,6-dihydro-5-methyl-6-oxo-4H-imidazo[1,5-a]benzodiazepine-3-carboxylic acid ethyl ester]",Discrimination Index (DI),"WT mice; Week 2 of drug therapy, versus vehicle",no differences
same,Discrimination Index (DI),WT mice; Week 4 (2 weeks post dosing),slight negative DI
same,Discrimination Index (DI),"Ts65Dn mice; Week 1 of drug therapy, PTX 1 mg/kg, flumazenil 10 mg/kg i.p.",positive effects
same,Discrimination Index (DI),Ts65Dn mice; Week 2 of drug therapy,positive effects
same,effect in the object recognition assay as compared to vehicle,"Ts65Dn mice; flumazenil 10 mg/kg i.p., conclusion",beneficial effect
same,oral bioavailability,[1],approximately 20%
